{
  "source": "ChEMBL document CHEMBL5385929",
  "about": "“Tabersonine Enhances Olaparib Sensitivity through FHL1-Mediated Epithelial-Mesenchymal Transition in an Ovarian Tumor” (J Nat Prod, 2024)",
  "key": {"A2780 [1]": {"tested_on": "A2780", "assay": "Potentiation of olaparib-induced antitumor activity against shNC RNA-transfected human A2780 cells xenografted in BALB/c mouse assessed as decrease in lung metastatic nodules at 15 mg/kg, ip co-administered with olaparib every other day from day 6 of tumor cell inoculation and measured on day 30 post-tumor cell inoculation by H and E staining based bright field microscopic analysis", "assay_type": "functional, organism-based", "details": "time 24.0 day"}, "A2780 [2]": {"tested_on": "A2780", "assay": "Potentiation of olaparib sensitivity in human A2780 cells transfected with shFLH1-2 RNA assessed as downregulation of EMT signaling by measuring N-cadherin protein expression at 10 uM in presence of olaparib by western blot analysis", "assay_type": "functional, cell-based"}, "SK-OV-3 [3]": {"tested_on": "SK-OV-3", "assay": "Increase in FHL1 protein stability in human SK-OV-3 cells at 10 uM measured after 6 to 24 hrs in presence of cycloheximide by CHX chase assay based western blot analysis", "assay_type": "functional, cell-based", "details": "time 6-24 hrs"}, "A2780 [4]": {"tested_on": "A2780", "assay": "Increase in FHL1 protein stability in human A2780 cells at 10 uM measured after 6 to 24 hrs in presence of cycloheximide by CHX chase assay based western blot analysis", "assay_type": "functional, cell-based", "details": "time 6-24 hrs"}, "A2780 [5]": {"tested_on": "A2780", "assay": "Potentiation of olaparib sensitivity in human A2780 cells transfected with shFHL1-1 RNA assessed as inhibition of cell invasion at 10 uM measured after 48 hrs in presence of olaparib by Transwell assay", "assay_type": "functional, cell-based"}, "SK-OV-3 [6]": {"tested_on": "SK-OV-3", "assay": "Potentiation of olaparib sensitivity in human SK-OV-3 cells assessed as inhibition of cell migration at 10 uM measured after 24 to 48 hrs in presence of olaparib by wound healing assay", "assay_type": "functional, cell-based", "details": "time 24-48 hrs"}, "A2780 [7]": {"tested_on": "A2780", "assay": "Potentiation of olaparib sensitivity in human A2780 cells assessed as downregulation of EMT signaling by measuring downregulation of N-cadherin protein expression at 10 uM in presence of olaparib by western blot analysis", "assay_type": "functional, cell-based"}, "Mus musculus [8]": {"tested_on": "Mus musculus", "assay": "Potentiation of olaparib sensitivity in BALB/c mouse xenografted with shFHL1-1 RNA-transfected human A2780 cells assessed as upregulation of FHL1 protein expression in tumor at 15 mg/kg, ip co-administered with olaparib for 2 weeks by western blot analysis", "assay_type": "functional, organism-based"}, "Mus musculus [9]": {"tested_on": "Mus musculus", "assay": "Potentiation of olaparib sensitivity in BALB/c mouse xenografted with shNC RNA-transfected human A2780 cells assessed as downregulation of N-cadherin protein expression in tumor at 15 mg/kg, ip co-administered with olaparib for 2 weeks by western blot analysis", "assay_type": "functional, organism-based"}, "Mus musculus [10]": {"tested_on": "Mus musculus", "assay": "Potentiation of olaparib sensitivity in BALB/c mouse xenografted with shFHL1-1 RNA-transfected human A2780 cells assessed as increase in FHL1 protein expression in tumor at 15 mg/kg, ip co-administered with olaparib for 2 weeks by immunohistochemistry", "assay_type": "functional, organism-based"}, "SK-OV-3 [11]": {"tested_on": "SK-OV-3", "assay": "Downregulation of EMT signalling in human SK-OV-3 cells assessed as downregulation of N-cadherin protein expression at 10 uM by western blot analysis", "assay_type": "functional, cell-based"}, "A2780 [12]": {"tested_on": "A2780", "assay": "Potentiation of olaparib sensitivity in human A2780 cells assessed as inhibition of cell invasion at 10 uM measured after 48 hrs in presence of olaparib by Transwell assay", "assay_type": "functional, cell-based"}, "SK-OV-3 [13]": {"tested_on": "SK-OV-3", "assay": "Downregulation of EMT signalling in human SK-OV-3 cells assessed as downregulation of vimentin protein expression at 10 uM by western blot analysis", "assay_type": "functional, cell-based"}, "A2780 [14]": {"tested_on": "A2780", "assay": "Potentiation of olaparib sensitivity in human A2780 cells transfected with shFHL1-2 RNA assessed as inhibition of cell migration at 10 uM measured after 24 to 48 hrs in presence of olaparib by wound healing assay", "assay_type": "functional, cell-based", "details": "time 24-48 hrs"}, "SK-OV-3 [15]": {"tested_on": "SK-OV-3", "assay": "Potentiation of olaparib sensitivity in human SK-OV-3 cells transfected with shFLH1-1 RNA assessed as downregulation of EMT signaling by measuring vimentin protein expression at 10 uM in presence of olaparib by western blot analysis", "assay_type": "functional, cell-based"}, "SK-OV-3 [16]": {"tested_on": "SK-OV-3", "assay": "Inhibition of cell migration in human SK-OV-3 cells transfected with shFHL1-2 RNA at 10 uM measured after 24 to 48 hrs by wound healing assay", "assay_type": "functional, cell-based", "details": "time 24-48 hrs"}, "A2780 [17]": {"tested_on": "A2780", "assay": "Potentiation of olaparib sensitivity in human A2780 cells assessed as induction of DNA damage response by measuring increase in tail moment at 10 uM measured after 48 hrs in presence of olaparib by alkaline comet assay", "assay_type": "functional, cell-based"}, "Mus musculus [18]": {"tested_on": "Mus musculus", "assay": "Potentiation of olaparib sensitivity in BALB/c mouse xenografted with shNC RNA-transfected human A2780 cells assessed as downregulation of vimentin protein expression in tumor at 15 mg/kg, ip co-administered with olaparib for 2 weeks by western blot analysis", "assay_type": "functional, organism-based"}, "A2780 [19]": {"tested_on": "A2780", "assay": "Potentiation of olaparib sensitivity in human A2780 cells assessed as inhibition of cell viability at 10 uM measured after 5 days in presence of olaparib by CCK8 assay", "assay_type": "functional, cell-based", "details": "time 5.0 day"}, "SK-OV-3 [20]": {"tested_on": "SK-OV-3", "assay": "Potentiation of olaparib sensitivity in human SK-OV-3 cells transfected with shFHL1-2 RNA assessed as inhibition of cell migration at 10 uM measured after 24 to 48 hrs in presence of olaparib by wound healing assay", "assay_type": "functional, cell-based", "details": "time 24-48 hrs"}, "A2780 [21]": {"tested_on": "A2780", "assay": "Downregulation of EMT signalling in human A2780 cells assessed as downregulation of vimentin protein expression at 10 uM by western blot analysis", "assay_type": "functional, cell-based"}, "SK-OV-3 [22]": {"tested_on": "SK-OV-3", "assay": "Potentiation of olaparib sensitivity in human SK-OV-3 cells transfected with shFHL1-1 RNA assessed as inhibition of cell migration at 10 uM measured after 24 to 48 hrs in presence of olaparib by wound healing assay", "assay_type": "functional, cell-based", "details": "time 24-48 hrs"}, "A2780 [23]": {"tested_on": "A2780", "assay": "Potentiation of olaparib sensitivity in human A2780 cells transfected with shFLH1-1 RNA assessed as downregulation of EMT signaling by measuring E-cadherin protein expression at 10 uM in presence of olaparib by western blot analysis", "assay_type": "functional, cell-based"}, "Mus musculus [24]": {"tested_on": "Mus musculus", "assay": "Potentiation of olaparib sensitivity in BALB/c mouse xenografted with shNC RNA-transfected human A2780 cells assessed as increase in FHL1 protein expression in tumor at 15 mg/kg, ip co-administered with olaparib for 2 weeks by immunohistochemistry", "assay_type": "functional, organism-based"}, "SK-OV-3 [25]": {"tested_on": "SK-OV-3", "assay": "Downregulation of EMT signalling in human SK-OV-3 cells transfected with shFHL1-2 RNA assessed as N-cadherin protein expression at 10 uM by western blot analysis", "assay_type": "functional, cell-based"}, "Mus musculus [26]": {"tested_on": "Mus musculus", "assay": "Potentiation of olaparib sensitivity in BALB/c mouse xenografted with shFHL1-1 RNA-transfected human A2780 cells assessed as upregulation of E-cadherin protein expression in tumor at 15 mg/kg, ip co-administered with olaparib for 2 weeks by western blot analysis", "assay_type": "functional, organism-based"}, "A2780 [27]": {"tested_on": "A2780", "assay": "Potentiation of olaparib sensitivity in human A2780 cells transfected with shFLH1-2 RNA assessed as downregulation of EMT signaling by measuring vimentin protein expression at 10 uM in presence of olaparib by western blot analysis", "assay_type": "functional, cell-based"}, "SK-OV-3 [28]": {"tested_on": "SK-OV-3", "assay": "Potentiation of olaparib sensitivity in human SK-OV-3 cells assessed as downregulation of EMT signaling by measuring upregulation of E-cadherin protein expression at 10 uM in presence of olaparib by western blot analysis", "assay_type": "functional, cell-based"}, "A2780 [29]": {"tested_on": "A2780", "assay": "Potentiation of olaparib sensitivity in human A2780 cells transfected with shFHL1-1 RNA assessed as inhibition of cell migration at 10 uM measured after 24 to 48 hrs in presence of olaparib by wound healing assay", "assay_type": "functional, cell-based", "details": "time 24-48 hrs"}, "SK-OV-3 [30]": {"tested_on": "SK-OV-3", "assay": "Potentiation of olaparib sensitivity in human SK-OV-3 cells transfected with shFLH1-2 RNA assessed as downregulation of EMT signaling by measuring E-cadherin protein expression at 10 uM in presence of olaparib by western blot analysis", "assay_type": "functional, cell-based"}},
  "note": "The source made the active and inactive calls. The rule behind the calls is not given here.",
  "data": [
    {"smiles": "CC[C@]12C=CCN3CC[C@]4(C(=C(C(=O)OC)C1)Nc1ccccc14)[C@@H]32", "note": "[TABERSONINE]", "values": [
      {"measurement": "Activity", "setting": "A2780 [1]", "result": "Active"},
      {"measurement": "Activity", "setting": "A2780 [2]", "result": "inactive"},
      {"measurement": "Activity", "setting": "SK-OV-3 [3]", "result": "Active"},
      {"measurement": "Activity", "setting": "A2780 [4]", "result": "Active"},
      {"measurement": "Activity", "setting": "A2780 [5]", "result": "inactive"},
      {"measurement": "Activity", "setting": "SK-OV-3 [6]", "result": "Active"},
      {"measurement": "Activity", "setting": "A2780 [7]", "result": "Active"},
      {"measurement": "Activity", "setting": "Mus musculus [8]", "result": "inactive"},
      {"measurement": "Activity", "setting": "Mus musculus [9]", "result": "Active"},
      {"measurement": "Activity", "setting": "Mus musculus [10]", "result": "inactive"},
      {"measurement": "inhibition", "setting": "SK-OV-3 [11]", "result": "Active"},
      {"measurement": "Activity", "setting": "A2780 [12]", "result": "Active"},
      {"measurement": "inhibition", "setting": "SK-OV-3 [13]", "result": "Active"},
      {"measurement": "Activity", "setting": "A2780 [14]", "result": "inactive"},
      {"measurement": "Activity", "setting": "SK-OV-3 [15]", "result": "inactive"},
      {"measurement": "inhibition", "setting": "SK-OV-3 [16]", "result": "inactive"},
      {"measurement": "Activity", "setting": "A2780 [17]", "result": "Active"},
      {"measurement": "Activity", "setting": "Mus musculus [18]", "result": "Active"},
      {"measurement": "Activity", "setting": "A2780 [19]", "result": "Active"},
      {"measurement": "Activity", "setting": "SK-OV-3 [20]", "result": "inactive"},
      {"measurement": "inhibition", "setting": "A2780 [21]", "result": "Active"},
      {"measurement": "Activity", "setting": "SK-OV-3 [22]", "result": "inactive"},
      {"measurement": "Activity", "setting": "A2780 [23]", "result": "inactive"},
      {"measurement": "Activity", "setting": "Mus musculus [24]", "result": "Active"},
      {"measurement": "inhibition", "setting": "SK-OV-3 [25]", "result": "inactive"},
      {"measurement": "Activity", "setting": "Mus musculus [26]", "result": "inactive"},
      {"measurement": "Activity", "setting": "A2780 [27]", "result": "inactive"},
      {"measurement": "Activity", "setting": "SK-OV-3 [28]", "result": "Active"},
      {"measurement": "Activity", "setting": "A2780 [29]", "result": "inactive"},
      {"measurement": "Activity", "setting": "SK-OV-3 [30]", "result": "inactive"}
    ]}
  ]
}
